Laboratory results reported in ChEMBL document CHEMBL1129393, “Synthesis of novel trans-4-(substituted-benzamido)-3,4-dihydro-2H-benzo[b]-pyran-3-ol derivatives as potential anticonvulsant agents with a distinctive binding profile” (J Med Chem, 1996).

What was measured:
[1] = test system: Mus musculus; test: Percentage increase in seizure threshold at dose of 10 mg/kg in mouse maximal electroshock seizure threshold (MEST) model after po administration; type: functional
[2] = target: SB-204269 binding site; test: Inhibition of [3H]-SB 204269 binding to rat forebrain membranes.; type: cell membranes, Membrane
[3] = test system: Mus musculus; test: Percentage increase in seizure threshold at dose of 3 mg/kg in mouse maximal electroshock seizure threshold (MEST) model after po administration

| SMILES | Increase [1] | Log Ki [2] | Increase [3] |
| --- | --- | --- | --- |
| CC1(C)Oc2ccc([N+](=O)[O-])cc2C(NC(=O)c2ccc(F)cc2)C1O (stereo not drawn) | 45% | -6.2 | 2% |
| CC(=O)c1ccc2c(c1)OC(C)(C)C(O)C2NC(=O)c1ccc(F)cc1 (stereo not drawn) |  | -5.51 |  |
| CC1(C)Oc2ccc(C(N)=O)cc2C(NC(=O)c2ccc(F)cc2)C1O (stereo not drawn) | 6% | -6.06 |  |
| Cc1ccc2c(c1)C(NC(=O)c1ccc(F)cc1)C(O)C(C)(C)O2 (stereo not drawn) | 5% | -5.3 |  |
| CC1(C)Oc2ccc(F)cc2C(NC(=O)c2ccc(F)cc2)C1O (stereo not drawn) | 10% | -5.38 |  |
| CC(=O)c1ccc2c(c1)[C@H](NC(=O)c1ccccc1)[C@@H](O)C(C)(C)O2 | 110% | -7.3 | 65% |
| CC(=O)c1cccc2c1C(NC(=O)c1ccc(F)cc1)C(O)C(C)(C)O2 (stereo not drawn) |  | -5.09 |  |
| CC(=O)c1cccc2c1OC(C)(C)C(O)C2NC(=O)c1ccc(F)cc1 (stereo not drawn) | 5% | -5 |  |
| CC(=O)c1ccc2c(c1)[C@H](NC(=O)c1cccc(I)c1)[C@@H](O)C(C)(C)O2 | 51% | -8.28 |  |
| CC(=O)c1ccc2c(c1)C(NC(=O)c1ccc(Cl)cc1)C(O)C(C)(C)O2 (stereo not drawn) | 55% | -7.16 |  |
| CC1(C)Oc2ccc(C#N)cc2[C@H](NC(=O)c2ccc(F)cc2)[C@H]1O | 41% | -6 | 15% |
| CCC(=O)c1ccc2c(c1)C(NC(=O)c1ccc(F)cc1)C(O)C(C)(C)O2 (stereo not drawn) | 35% | -6.8 |  |
| CC(=O)c1ccc2c(c1)C(NC(=O)C1CCCCC1)C(O)C(C)(C)O2 (stereo not drawn) |  | -5.9 |  |
| CC1(C)Oc2ccc(C(F)(F)C(F)(F)F)cc2[C@H](NC(=O)c2ccc(F)cc2)[C@H]1O | -8% | -6.35 |  |
| CC1(C)Oc2ccc(C(=O)c3ccccc3)cc2C(NC(=O)c2ccc(F)cc2)C1O (stereo not drawn) |  | -6.12 |  |
| CC1(C)Oc2ccc(S(=O)(=O)c3ccccc3)cc2C(NC(=O)c2ccc(F)cc2)C1O (stereo not drawn) | -7% | -5.84 |  |
| COC(=O)c1ccc2c(c1)C(NC(=O)c1ccc(F)cc1)C(O)C(C)(C)O2 (stereo not drawn) | 59% | -6.69 |  |
| CC(=O)c1ccc2c(c1)[C@@H](NC(=O)c1ccc(F)cc1)[C@H](O)C(C)(C)O2 | 8% | < -4.5 |  |
| CC(=O)c1ccc2c(c1)[C@H](NC(=O)c1ccccc1Cl)[C@@H](O)C(C)(C)O2 |  | -7.65 | 94% |
| CC(=O)c1ccc2c(c1)[C@H](NC(=O)c1cccc(Cl)c1)[C@@H](O)C(C)(C)O2 | 90% | -8.04 | 78% |
| CC(=O)c1ccc2c(c1)[C@H](NC(=O)c1ccc(F)cc1)[C@@H](O)C(C)(C)O2 [CARABERSAT] | 102% | -7.32 | 89% |
